Laboratory results reported in patent US5650550A, “Mutant mice having a deficit of functional estrogen receptors” (The United States of America as represented by the …, priority 1995, dated 1997).

Test system: adult female mice (uterus, vagina)
Experiment: Estrogen responsiveness bioassay in adult females (uterine wet weight, hyperemia, vaginal epithelial cytology)
Type: in vivo, mouse
Conditions: for vaginal histology: after estradiol treatment; for increase in uterine wet weight: treated for three days, compared to untreated control

C[C@]12CC[C@@H]3c4ccc(O)cc4CC[C@H]3[C@@H]1CC[C@@H]2O [estradiol]
vaginal histology (ER disrupted animals): unaltered | uterine water imbibition or uterine hyperemia (ER disrupted animals, treatment for 4-6 hours): no uterine water imbibition or uterine hyperemia | increase in uterine wet weight (heterozygous animals): 3-4 fold | increase in uterine weight or hyperemia (homozygous ER disrupted animals, three day bioassay): did not respond | uterine hyperemia (wild type and heterozygotes, three day bioassay): became hyperemic | vaginal histology (wild type and heterozygous animals): increase in number of cornified epithelial cells | increase in uterine wet weight (wild type animals): 3-4 fold
